Experimental data reported in ChEMBL document CHEMBL3297705, “Discovery of 5,6,7,8-tetrahydropyrido[3,4-d]pyrimidine inhibitors of Erk2” (Bioorg Med Chem Lett, 2014).
pEC50, pIC50: −log10 of the molar value.

What was measured:
[1] = biological target: T1, Mitogen-activated protein kinase 1 (Homo sapiens, UniProt P28482)
Description: Inhibition of ERK2 in human HepG2 cells assessed as P90RSK phosphorylation at Ser380 after 1.5 hrs by fluorescence assay

[2] = biological target: T1, Mitogen-activated protein kinase 1; remark: listed apart in the source
Description: Inhibition of human recombinant N-terminal 6-His-tagged ERK2 expressed in Escherichia coli using S/T17 as substrate after 30 mins by spectrophotometry

[3] = Plasma protein binding in human; assay type: ADME, cell-free; conditions: read-out: PPB (converted)
[4] = biological target: Cyclin-dependent kinase 2 (Homo sapiens, UniProt P24941)
Description: Inhibition of Cdk2 (unknown origin)

[5] = Half life in NCR nude mouse at 30 mg/kg, po; assay type: ADME, organism-based; set-up: dose 30 mg/kg, route oral; conditions: in vivo
[6] = AUC (0 to infinity) in NCR nude mouse at 100 mg/kg, po; assay type: ADME, organism-based; set-up: time infinity, dose 100 mg/kg, route oral; conditions: plasma
Mus musculus [7] = test: In vivo inhibition of ERK2 in nude mouse xenografted with human HCT116 cells assessed as pRSK knockdown at 75 mg/kg, po qd after 1 hr relative to vehicle-treated control; assay type: functional; conditions: HCT-116, 1 h
[8] = Cmax in cynomolgus monkey at 3 mg/kg, po; assay type: ADME, organism-based, Macaca fascicularis; set-up: dose 3 mg/kg, route oral; conditions: in vivo
Mus musculus [9] = test: Toxicity in nude mouse xenografted with human HCT116 cells assessed as body weight loss at 150 mg/kg, po bid relative to vehicle-treated control; assay type: organism-based, HCT-116; set-up: dose 150 mg/kg, route oral; conditions: in vivo
[10] = Toxicity in po dosed nude mouse xenografted with human HCT116 cells administered bid; assay type: organism-based, HCT-116; conditions: in vivo
[11] = AUC (0 to infinity) in NCR nude mouse at 30 mg/kg, po; assay type: ADME, organism-based; set-up: time infinity, dose 30 mg/kg, route oral; conditions: plasma
[12] = Clearance in NCR nude mouse at 1 mg/kg, iv; assay type: ADME, organism-based; set-up: dose 1 mg/kg, route intravenous; conditions: in vivo
[13] = Oral bioavailability in beagle dog at 2 mg/kg; assay type: ADME, organism-based, Canis lupus familiaris; conditions: in vivo
[14] = AUC (0 to infinity) in Sprague-Dawley rat at 5 mg/kg, po; assay type: ADME, organism-based; set-up: time infinity, dose 5 mg/kg, route oral; conditions: plasma
[15] = Clearance in beagle dog at 1 mg/kg, iv; assay type: ADME, organism-based, Canis lupus familiaris; set-up: dose 1 mg/kg, route intravenous; conditions: in vivo
[16] = Tmax in cynomolgus monkey at 3 mg/kg, po; assay type: ADME, organism-based, Macaca fascicularis; set-up: dose 3 mg/kg, route oral; conditions: in vivo
[17] = Clearance in cynomolgus monkey at 1 mg/kg, iv; assay type: ADME, organism-based, Macaca fascicularis; set-up: dose 1 mg/kg, route intravenous; conditions: in vivo
Mus musculus [18] = test: In vivo inhibition of ERK2 in nude mouse xenografted with human HCT116 cells assessed as pRSK knockdown at 150 mg/kg, po qd after 8 hrs relative to vehicle-treated control; assay type: functional; conditions: HCT-116, 8 h
[19] = Cmax in beagle dog at 2 mg/kg, po; assay type: ADME, organism-based, Canis lupus familiaris; set-up: dose 2 mg/kg, route oral; conditions: in vivo
[20] = Half life in cynomolgus monkey at 3 mg/kg, po; assay type: ADME, organism-based, Macaca fascicularis; set-up: dose 3 mg/kg, route oral; conditions: in vivo
[21] = Cmax in NCR nude mouse at 100 mg/kg, po; assay type: ADME, organism-based; set-up: dose 100 mg/kg, route oral; conditions: in vivo
[22] = Tmax in NCR nude mouse at 30 mg/kg, po; assay type: ADME, organism-based; set-up: dose 30 mg/kg, route oral; conditions: in vivo
[23] = Tmax in NCR nude mouse at 100 mg/kg, po; assay type: ADME, organism-based; set-up: dose 100 mg/kg, route oral; conditions: in vivo
[24] = Cmax in NCR nude mouse at 150 mg/kg, po; assay type: ADME, organism-based; set-up: dose 150 mg/kg, route oral; conditions: in vivo
[25] = AUC (0 to infinity) in beagle dog at 2 mg/kg, po; assay type: ADME, organism-based, Canis lupus familiaris; set-up: dose 2 mg/kg, route oral, time infinity; conditions: plasma
[26] = Cmax in Sprague-Dawley rat at 5 mg/kg, po; assay type: ADME, organism-based; set-up: dose 5 mg/kg, route oral; conditions: in vivo
[27] = Tmax in Sprague-Dawley rat at 5 mg/kg, po; assay type: ADME, organism-based; set-up: dose 5 mg/kg, route oral; conditions: in vivo
[28] = Tmax in NCR nude mouse at 150 mg/kg, po; assay type: ADME, organism-based; set-up: dose 150 mg/kg, route oral; conditions: in vivo
[29] = Clearance in CD-1 mouse at 0.5 mg/kg, iv; assay type: ADME, organism-based; set-up: dose 0.5 mg/kg, route intravenous; conditions: in vivo
[30] = Half life in NCR nude mouse at 150 mg/kg, po; assay type: ADME, organism-based; set-up: dose 150 mg/kg, route oral; conditions: in vivo
[31] = AUC (0 to infinity) in NCR nude mouse at 150 mg/kg, po; assay type: ADME, organism-based; set-up: time infinity, dose 150 mg/kg, route oral; conditions: plasma
[32] = Clearance in Sprague-Dawley rat at 1 mg/kg, iv; assay type: ADME, organism-based; set-up: dose 1 mg/kg, route intravenous; conditions: in vivo
[33] = Antiproliferative activity against human HCT116 cells expressing K-Ras […] mutant after 72 hrs by Cell-Titre Blue assay; assay type: functional, cell-based; conditions: HCT-116, 72 h
[34] = Oral bioavailability in CD-1 mouse at 2 mg/kg; assay type: ADME, organism-based; conditions: in vivo
[35] = Cmax in NCR nude mouse at 30 mg/kg, po; assay type: ADME, organism-based; set-up: dose 30 mg/kg, route oral; conditions: in vivo
[36] = Half life in NCR nude mouse at 100 mg/kg, po; assay type: ADME, organism-based; set-up: dose 100 mg/kg, route oral; conditions: in vivo
[37] = Half life in Sprague-Dawley rat at 5 mg/kg, po; assay type: ADME, organism-based; set-up: dose 5 mg/kg, route oral; conditions: in vivo
A-375 = test: Antiproliferative activity against human A375 cells expressing B-Raf V600E mutant after 72 hrs by Cell-Titre Blue assay; assay type: functional, cell-based; conditions: A-375, 72 h
[38] = Oral bioavailability in NCR nude mouse at 30 mg/kg; assay type: ADME, organism-based; conditions: in vivo
[39] = Oral bioavailability in NCR nude mouse at 100 mg/kg; assay type: ADME, organism-based; conditions: in vivo
Mus musculus [40] = test: In vivo inhibition of ERK2 in nude mouse xenografted with human HCT116 cells assessed as pRSK knockdown at 75 mg/kg, po qd after 8 hrs relative to vehicle-treated control; assay type: functional; conditions: HCT-116, 8 h
[41] = Oral bioavailability in Sprague-Dawley rat at 5 mg/kg; assay type: ADME, organism-based; conditions: in vivo
[42] = Oral bioavailability in NCR nude mouse at 150 mg/kg; assay type: ADME, organism-based; conditions: in vivo
[43] = Oral bioavailability in cynomolgus monkey at 3 mg/kg; assay type: ADME, organism-based, Macaca fascicularis; conditions: in vivo
[44] = Half life in beagle dog at 2 mg/kg, po; assay type: ADME, organism-based, Canis lupus familiaris; set-up: dose 2 mg/kg, route oral; conditions: in vivo
[45] = Tmax in beagle dog at 2 mg/kg, po; assay type: ADME, organism-based, Canis lupus familiaris; set-up: dose 2 mg/kg, route oral; conditions: in vivo
[46] = AUC (0 to infinity) in cynomolgus monkey at 3 mg/kg, po; assay type: ADME, organism-based, Macaca fascicularis; set-up: dose 3 mg/kg, route oral, time infinity; conditions: plasma

T1 sequence (P28482 whole entry): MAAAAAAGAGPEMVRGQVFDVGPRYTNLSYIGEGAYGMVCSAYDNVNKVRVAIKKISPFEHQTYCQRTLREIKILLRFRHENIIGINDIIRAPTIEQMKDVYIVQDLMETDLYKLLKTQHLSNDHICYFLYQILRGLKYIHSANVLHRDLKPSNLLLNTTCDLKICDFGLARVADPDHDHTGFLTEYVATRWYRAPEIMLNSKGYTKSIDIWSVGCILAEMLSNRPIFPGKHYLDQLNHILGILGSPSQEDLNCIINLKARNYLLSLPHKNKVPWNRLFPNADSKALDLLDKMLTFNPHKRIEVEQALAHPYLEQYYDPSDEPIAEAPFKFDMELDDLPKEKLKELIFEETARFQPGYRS

CC(C)(C)Nc1ncc2c(n1)CN(C(=O)N[C@H](CO)c1ccc(F)c(Cl)c1)CC2
pIC50 [1]: 5.52
pIC50 [2]: 7.39

O=C(N[C@H](CO)c1ccc(F)c(Cl)c1)N1CCc2cnc(N[C@H]3CC[C@H](O)C3)nc2C1
pIC50 [1]: 6.70
pIC50 [2]: 8.70

Cc1cc(Nc2ncc3c(n2)CN(C(=O)N[C@H](C)c2ccc(Cl)c(Cl)c2)CC3)ccn1
pIC50 [1]: 7.64
fraction unbound [3]: 0.006
pIC50 [2]: 9.00
pIC50 [4]: 8.05

COc1ccc(CNC(=O)N2CCc3cnc(NC(C)C)nc3C2)cc1
pIC50 [1]: 5.36
pIC50 [2]: 6.97

O=C(N[C@H](CO)c1ccc(F)c(Cl)c1)N1CCc2cnc(Nc3ccc(F)cc3)nc2C1
pIC50 [1]: 6.46
pIC50 [2]: 8.52

Cc1noc(C)c1Nc1ncc2c(n1)CN(C(=O)N[C@H](CO)c1ccc(F)c(Cl)c1)CC2
pIC50 [1]: 4.88

CC(C)Nc1ncc2c(n1)CN(C(=O)NCc1ccccc1)CC2
pIC50 [1]: 5.36
pIC50 [2]: 6.55

CC(C)Nc1ncc2c(n1)CN(C(=O)NCc1ccc(F)cc1)CC2
pIC50 [1]: 5.18
pIC50 [2]: 7.16

CC(C)Nc1ncc2c(n1)CN(C(=O)NCc1ccc(Cl)cc1)CC2
pIC50 [1]: 5.67
pIC50 [2]: 7.04

CC(C)Nc1ncc2c(n1)CN(C(=O)NCc1cccc(F)c1)CC2
pIC50 [1]: 5.58
pIC50 [2]: 7.03

CC(=O)Nc1ncc2c(n1)CN(C(=O)N[C@H](CO)c1ccc(F)c(Cl)c1)CC2
pIC50 [1]: 5.13
pIC50 [2]: 7.03

Cn1cc(Nc2ncc3c(n2)CN(C(=O)N[C@H](CO)c2ccc(F)c(Cl)c2)CC3)cn1
pIC50 [1]: 6.61
pIC50 [2]: 8.22

Cc1cc(Nc2ncc3c(n2)CN(C(=O)N[C@H](CO)c2ccc(F)c(Cl)c2)CC3)ccn1
pIC50 [1]: 6.35
pIC50 [2]: 8.15

O=C(N[C@H](CO)c1ccc(Cl)c(F)c1)N1CCc2cnc(NC3CCOCC3)nc2C1
half-life [5]: 144 min
AUC(0-inf) [6]: 30 µM·h
inhibition in vivo at 75 mg/kg (Mus musculus [7]): 75%
Cmax [8]: 160 nM
Activity (Mus musculus [9]): Non-toxic
MTD [10]: 50 mg/kg
AUC(0-inf) [11]: 4.81 µM·h
clearance [12]: 134 mL/min/kg
bioavailability [13]: 26%
AUC(0-inf) [14]: 0.2 µM·h
clearance [15]: 32 mL/min/kg
Tmax [16]: 79.8 min
clearance [17]: 33 mL/min/kg
inhibition in vivo at 150 mg/kg (Mus musculus [18]): 55%
Cmax [19]: 590 nM
half-life [20]: 312 min
Cmax [21]: 9820 nM
Tmax [22]: 30 min
Tmax [23]: 15 min
Cmax [24]: 13900 nM
AUC(0-inf) [25]: 0.61 µM·h
Cmax [26]: 90 nM
Tmax [27]: 19.8 min
Tmax [28]: 15 min
clearance [29]: 33 mL/min/kg
half-life [30]: 162 min
AUC(0-inf) [31]: 26.7 µM·h
clearance [32]: 104 mL/min/kg
pEC50 [33]: 6.13
bioavailability [34]: 29%
Cmax [35]: 3120 nM
half-life [36]: 450 min
half-life [37]: 102 min
pEC50 (A-375): 6.41
bioavailability [38]: 58%
bioavailability [39]: 73%
inhibition in vivo at 75 mg/kg (Mus musculus [40]): 20%
bioavailability [41]: 11%
bioavailability [42]: 64%
bioavailability [43]: 19%
half-life [44]: 36 min
Tmax [45]: 25.2 min
AUC(0-inf) [46]: 0.65 µM·h

CC(C)Nc1ncc2c(n1)CN(C(=O)NCc1cccc(Cl)c1)CC2
pIC50 [1]: 5.73
pIC50 [2]: 7.05

O=C(N[C@H](CO)c1ccc(Cl)c(Cl)c1)N1CCc2cnc(NC3CCOCC3)nc2C1
pIC50 [1]: 7.77
fraction unbound [3]: 0.103
pIC50 [2]: 9.00
pIC50 [4]: 7.96

C[C@@H](NC(=O)N1CCc2cnc(NC3CCOCC3)nc2C1)c1ccc2cc[nH]c2c1
pIC50 [1]: 7.68
pIC50 [2]: 8.70
pIC50 [4]: 7.16

C[C@@H](NC(=O)N1CCc2cnc(NC3CCOCC3)nc2C1)c1ccc(Cl)c(F)c1
pIC50 [1]: 7.92
fraction unbound [3]: 0.095
pIC50 [2]: 9.00
pIC50 [4]: 7.89

CC[C@@H](NC(=O)N1CCc2cnc(NC3CCOCC3)nc2C1)c1ccc(C#N)c(Cl)c1
pIC50 [1]: 8.40
pIC50 [2]: 9.00
pIC50 [4]: 8.70

C[C@@H](CO)Nc1ncc2c(n1)CN(C(=O)N[C@H](CO)c1ccc(F)c(Cl)c1)CC2
pIC50 [1]: 6.33
pIC50 [2]: 8.52

CC(C)CNc1ncc2c(n1)CN(C(=O)N[C@H](CO)c1ccc(F)c(Cl)c1)CC2
pIC50 [1]: 6.29
pIC50 [2]: 8.00

C[C@@H](NC(=O)N1CCc2cnc(Nc3cnn(C)c3)nc2C1)c1ccc(Cl)c(Cl)c1
pIC50 [1]: 7.46
fraction unbound [3]: 0.018
pIC50 [2]: 9.00
pIC50 [4]: 8.40

C[C@@H](NC(=O)N1CCc2cnc(Nc3ccnn3C)nc2C1)c1ccc(Cl)c(Cl)c1
pIC50 [1]: 7.37
fraction unbound [3]: 0.01
pIC50 [2]: 9.00
pIC50 [4]: 7.64
